US20220249399A1, “COMPOSITION COMPRISING AN ANTI-OXIDANT TO PRESERVE CORNEAL TISSUE” (University of lowa Research Foundation, priority 2019, published 2022)
Entries after “also recorded” stand apart in the source; their conditions may differ. Structures can show the parent of a compound that is named as a salt.

How the values were obtained:
[1] = system: primary cultures of corneal endothelial cells; assay: Seahorse XFe96 mitochondrial respiration of primary cultures of corneal endothelial cells; assay type: cell-based, human
Method: (§1) Human corneas were obtained by Iowa Lions Eye Bank (ILEB) from nondiabetic donors 60-75 years old and stored in Optisol GS (Bausch+Lomb, Irvine, Calif.) at 4° C. following procurement in accordance with Eye Bank Association of America and ILEB policies and procedures. Endothelial cells were isolated and cultured in Seahorse XFe96 well plates until they reached confluency. Purity of cell cultures were confirmed with anti-zonula occludens 1 (ZO-1) labeling of cellular tight junctions. Once confluent, cells were treated with different concentrations of cyclodextrin-coenzyme Q10 complex in culture (1 μM, 10 μM, or 100 μM) uncomplexed coenzyme Q10 (100 μM), cyclodextrin alone, or diluent control. Mitochondrial respiration was assayed by measuring oxygen consumption using the Seahorse XFe96 Extracellular Flux Analyzer (Agilent Technologies, Santa Clara, Calif.) over 120 minutes (9-minute intervals). Wells were labeled with a nuclear counterstain (DAPI) and nuclei were counted in each well to normalize respirometry data.
Seahorse respiration assays were conducted with MitoQ with doses ranging from 0 to 10 μM. All experiments were performed on corneal endothelial cells in culture and analyzed using the XFe96 Extracellular Flux Analyzer.
as §1, with “MitoQ with doses ranging from 0 to” for “different concentrations of cyclodextrin-coenzyme Q10 complex in culture (1 μM,”, “μM.” for “μM, or 100 μM) uncomplexed coenzyme Q10 (100 μM), cyclodextrin alone, or diluent control.”

[2] = system: immortalized human corneal endothelial cells; assay: Seahorse XFe24 mitochondrial respiration of immortalized human corneal endothelial cells grown in hyperglycemic medium; assay type: cell-based; details: 25 days of growth in 5.5-13.0 mM glucose, n=18, P<0.0001
Method: (§2) FIG. 40. Mitochondrial respiration assay using Seahorse XFe24 extracellular flux analyzer of immortalized human corneal endothelial cells following 25 days of growth in 5.5-13.0 mM glucose and treated with 8.3 μM PQQ (n=18). Maximal respiration and spare respiratory capacity are lowered in HCECs (P<0.0001) due to hyperglycemic growing conditions.
as §2, with “41.” for “40.”, “1.0 mM NAC” for “8.3 μM PQQ”

[3] = system: human donor corneal endothelial cells; assay: Mitochondrial respiration assay (Seahorse XFe24 extracellular flux analyzer) of donor corneal endothelium after storage in supplemented Optisol GS; assay type: cell-based; details: 1 mM ascorbate-2-phosphate
Method: Human corneal tissue pairs were obtained by Iowa Lions Eye Bank (ILEB) from nondiabetic donors 60-75 years old and stored in Optisol GS (Bausch+Lomb, Irvine, Calif.) at 4° C. following procurement in accordance with Eye Bank Association of America and ILEB policies and procedures. For 5 days prior to testing, but within 9 days of procurement, one stored tissue from a corneal pair was treated with 10 μM CoQ10, while the mate tissue was treated with diluent only as a control. Descemet membrane and endothelial cell punches were collected and mounted onto the bottom of a Seahorse assay plate (cells facing upward). Mitochondrial respiration was assayed by measuring oxygen consumption using the Seahorse XFe24 Extracellular Flux Analyzer (Agilent Technologies, Santa Clara, Calif.) over 120 minutes (9-minute intervals). Punches were labeled with a nuclear counterstain (DAPI) and remaining tissues were mounted onto slides and labeled with 488A-Annexin V, Ethidium Homodimer III, and Hoechst 33342 (Apoptotic, Necrotic, and Healthy Cells Quantification Kit; Biotium, Fremont, Calif.) to assay cell health. Nuclei were counted in each punch to normalize respirometry data. Immunohistochemistry densitometry was measured using ImageJ software.
Human donor whole globe eye pairs were obtained by Iowa Lions Eye Bank (ILEB) and the anterior portion of the eyes were removed. For 14 days, one cornea was stored from a corneal pair treated with 1 mM ascorbate-2-phosphate, while the mate tissue was treated with diluent only as a control. Descemet membrane and endothelial cell punches were collected and mounted onto the bottom of a Seahorse assay plate (cells facing upward). Mitochondrial respiration was assayed by measuring oxygen consumption using the Seahorse XFe24 Extracellular Flux Analyzer (Agilent Technologies, Santa Clara, Calif.) over 120 minutes (9-minute intervals). Punches were labeled with a nuclear counterstain (DAPI) and nuclei were counted in each punch to normalize respirometry data. […]
Tissue preparation and extracellular flux assays for mitochondrial respiration were performed as described in Greiner et al. (2015). In brief, after pre-stripping the EDM, 3 mm diameter EDM punches were mounted in wells of a XF24 microplate (Agilent Technologies, Santa Clara, Calif.). After acclimation for one hour at 37° C. in non-buffered assay media, metabolic activity of the EDM samples was quantified using a commercial kit (XF Cell Mito Stress Test Kits; Agilent Technologies) on a Seahorse XFe24 extracellular flux analyzer (Agilent Technologies). Following extracellular flux analysis, tissues were labeled fluorescently using a 1:1000 Sytox Green nucleic acid stain in the microtiter plate (Life Technologies, Grand Island, N.Y.) and imaged on an Olympus IX-81 inverted microscope (Olympus America, Center Valley, Pa.) using a FITC filter. Cell counts were determined using Image J (https://imagej.nih.gov/ij/download.html) and used to compute the oxygen consumption rate per cell (OCR; pmole/min/cell). Raw OCR values were used to calculate several different key parameters of metabolic function per manufacturer's directions (Agilent Technologies), as in Aldrich et al. (2017). The parameters and calculations used in this study were the main outcome measures, including basal respiration, ATP-associated oxygen consumption, proton [H^+] leak, maximal respiration, spare respiratory capacity, non-mitochondrial respiration, and coupling efficiency as described in Schneider et al. and Goldstein et al. (2018).
Mitochondrial Respiration Assay: 3 mm punches of central and peripheral endothelium-Descemet membrane complex (EDM) were secured to the bottom of cell culture microplate wells or CECs were grown directly onto microplate.

[4] = MitoQ 0 to 10 μM (data not shown)
[5] = MitoQ 0 to 10 μM, control vs 10 μM P<0.001, n=3

Compound: COC1=C(OC)C(=O)C(CCCCCCCCCC[P+](c2ccccc2)(c2ccccc2)c2ccccc2)=C(C)C1=O [MitoQ, mitoquinone mesylate]
- basal respiration [1, 4]: dose dependent reductions
- maximal respiration [1, 4]: dose dependent reductions
- non-mitochondrial respiration [1, 4]: not influenced
- proton leak [1, 4]: not influenced
- ATP linked oxygen consumption (ATP linked respiration) [1, 5]: dose dependent decrease; also recorded: significantly different
- spare respiratory capacity [1, 5]: dose dependent decrease; also recorded: significantly different
- respiratory function ([1]; escalating doses of MitoQ, 0 to 10 μM): dose dependent decrease in respiratory function; also recorded: decreased in respiratory function

Compound: CC(=O)N[C@@H](CS)C(=O)O [NAC, N-Acetyl-L-cysteine]
- maximal respiration and spare respiratory capacity lowered by hyperglycemic growing conditions ([2]; 1.0 mM NAC): mitigates this effect

Compound: O=C(O)c1cc(C(=O)O)c2c(n1)C(=O)C(=O)c1cc(C(=O)O)[nH]c1-2 [PQQ, pyrroloquinoline quinone]
- maximal respiration and spare respiratory capacity lowered by hyperglycemic growing conditions ([2]; 8.3 μM PQQ): mitigates this effect

Compound: ascorbate-2-phosphate
- corneal endothelial cell mitochondrial respiration [3]: did not affect corneal endothelial cell mitochondrial respiration
- non-mitochondrial respiration, higher level than untreated control cells ([3]; 14 days storage, 5 paired corneas, p-value=0.053): 21%

Compound: cyclodextrin [cyclodextrin alone]
- mitochondrial spare respiratory capacity ([1]; uncomplexed coenzyme Q10 (100 μM) or cyclodextrin alone vs diluent control): reduces the mitochondrial spare respiratory capacity
